The subject of experiment [1] is growth-associated protein-43 (GAP-43). The experiment in a line: PBBI in rats: GAP-43 immunohistochemistry in hippocampus. Conditions: 30 mg/kg oral once daily. Format: in vivo, Sprague-Dawley rats. How it is done:
The methods for producing PBBI in this Example is the same as described above for Example 26. Adult Sprague-Dawley rats were randomly assigned into three groups: sham (craniotomy only), PBBI+vehicle (i.e. H2O), and PBBI+cG-2-AllylP. cG-2-AllylP (or vehicle) was administered via oral gavage at 30 mg/kg at 30 min post-injury and continued once daily thereafter for 7, 14 or 28 days. At each treatment endpoint, rats were perfused and brains were processed for histological analysis (n=5-6/group/time-point). For detection of axonal sprouting, immunohistochemical detection of growth-associated protein-43 (GAP-43) was employed. Synaptogenesis was determined by immunohistochemistry for synaptophysin (SYN). For histological quantification, the integrated density in the hippocampal region was determined using NIH ImageJ software.

Experiment [2] deals with fmr1-knockout mice and wild-type mice. The experiment in a line: Marble burying. Format: in vivo. How it is done: Mice were placed in an enclosed environment with a bed of wood shavings. Ten (10) marbles were introduced into the environment, and the number of marbles buried was determined by visual observation (median±interquartile range (IQR)).
Experiment [3] has as its system heterozygous Shank3-deficient mice. As to the kind of experiment: Shank3-deficient mice: male-female social interactions and ultrasonic vocalizations. Format: in vivo. Conditions: Shank3-deficient groups; 15 or 60 mg/kg oral b.i.d 14 days; vs placebo. How it is done:
1 to 3 month old wild-type and heterozygous Shank3-deficient mice are divided into 4 treatment groups: placebo treated wild-type, placebo treated Shank3-deficient group and two Shank3-deficient cG-2-AllylP treated groups. The animals are given placebo (water) or cG-2-AllylP formulated in water administered orally, b.i.d for 14 days. cG-2-AllylP is administered at two doses: 15 or 60 mg/kg.
Behavioral assessments are made at several time points, and include analysis of social interactions and ultrasonic social communication, in line with the methodology described by Bozdagi et al. Briefly, male-female social interactions in each treatment group are evaluated. The subject males are group-housed and individually tested in clean cages with clean litter. Each testing session lasts 5 min. […] Videos from the male subjects are subsequently scored by an investigator uninformed of the subject's genotype and treatment group on measures of nose-to-nose sniffing, nose-to-anogenital sniffing and sniffing of other body regions, using Noldus Observer software (Noldus Information Technology, Leesburg, Va., USA). Ultrasonic vocalizations are identified manually by two highly trained investigators blinded to genotype/treatment group information, and summary statistics are calculated using the Avisoft package. […] Data are analysed using an unpaired Student's t-test.

The subject of the next experiment is interleukin 1 beta. As to the kind of experiment: PBBI in rats: IL-1beta ELISA. Format: in vivo. The note with it: 30 mg/kg oral gavage once daily. From the text:
(§1) The unilateral frontal PBBI model, which mimics the ballistic dynamics of a bullet or fragment wound to the head (Williams, 2003; Williams, 2006), was induced by stereotactic insertion of a custom probe through the right frontal cortex. A temporary cavity was formed by the rapid inflation/deflation (i.e. <40 msec) of an elastic balloon attached to the end of the probe. The PBBI apparatus consisted of a computer-controlled hydraulic pressure generator (Mitre Corp McLean, Va.), a PBBI probe and a stereotaxic frame equipped with a custom-designed probe holder as previously described (Lu, 2009; Williams, 2003). The injury severity was determined by the size of the balloon under control of the computerized hydraulic pressure. The balloon diameter calibrated to 0.63 cm expansion represented 10% of the total rat brain volume thus expressing a 10% PBBI. All surgeries were done under anaesthesia. Groups tested: Sham+vehicle, PBBI+vehicle, PBBI+cG-2-AllylP (30 mg/kg by oral gavage, 30 min post-injury, and again once daily until endpoint). […]
Target proteins were quantified with interleukin 1 beta (“IL-1beta”) (GenWay Biotech GWB-SKR107) and interleukin-6 (“IL-6”) (GenWay Biotech GWB-ZZD100) ELISAs according to manufacturer's instructions. Levels were calculated and normalized to total protein concentration as determined by BCA assay (n=9-10 per group).
(In an ELISA, binding on a coated surface is turned into a signal by an enzyme label.)

The next experiment has as its system BAX. The experiment in a line: PBBI in rats: BAX Western blotting. Format: in vivo. The note with it: 24 hr, 3 and 7 days after PBBI.
From the text: as §1, with “endpoint). AU procedures were approved by the Institutional Animal Care and Use Committee of WRAIR. Animals were housed in a facility accredited by the AAALAC.” for “endpoint).”
Samples were analysed at 24 hr and 3 and 7 days post-injury for all groups (sham+vehicle, PBBI+vehicle, PBBI+cG-2-AllylP). […]

In another experiment the test system is p-ERK1/2. As to the kind of experiment: Phospho-flow cytometry of lymphocytes, p-ERK1/2. Format: in vivo. Conditions: fmr1-knockout mice; 15, 30, 60 and 240 minutes after a single treatment. An excerpt:
Lymphocytes are isolated from five fmr1-knockout and five wild-type titter mate control mice, per study time after injection with cG-2-AllylP. Lymphocytes are examined for activation of two signaling effectors, p-ERK1/2 and p-Akt using phosphorylation status as a measure of activation by flow cytometry (phospho-flow).
1. Flow cytometry total and phosphorylated ERK in lymphocytes
In general terms: Flow cytometry measures light scatter and fluorescence of single cells or particles in a stream.

Structures are written as SMILES.

For the molecule `C=CC[C@]12CCCN1C(=O)CNC2=O` [cG-2-AllylP, (8aS)-Allyl-hexahydropyrrolo[1,2-a]pyrazine-1,4-dione], the “injury-induced reduction in GAP-43 expression” value in experiment [1] (7d or 14d post-PBBI) is “no effect on injury-induced reductions”. Also, the “PBBI-induced reduction in GAP-43 expression” value in experiment [1] (28 days post-injury) is on record as “attenuated PBBI-induced reductions”. In addition, in experiment [2] (fmr1-knockout animals), the marbles buried came to 80% and the “number of marbles buried (median)” value is given as 8 of 10 marbles. For the same molecule, in experiment [2] (wild-type mice), the marbles buried is reported as 100% and the “number of marbles buried” value is 10 out of 10. Besides, in experiment [3], the “cumulative duration of total social sniffing” value is “significant increase in the cumulative duration of total social sniffing” and the “number of ultrasonic vocalizations” value is on record as “increased number of ultrasonic vocalizations”. In the experiment with interleukin 1 beta (3 days after PBBI), the IL1-beta levels entry is “increased IL1-beta levels at 3 days after PBBI”. In addition, the IL1-beta levels entry with interleukin 1 beta (7 days after PBBI) is recorded as “decreased levels of IL1-beta at 7 days after PBBI”. In the experiment on BAX, the BAX levels result is given as “did not significantly alter BAX”. Besides, the “mean fluorescent intensity (MFI) for p-ERK1/2” value in the experiment with p-ERK1/2 is given as “decreases at all time points”.
